Article PMC11589570, “Critical assessment of LC3/GABARAP ligands used for degrader development and ligandability of LC3/GABARAP binding pockets” (Nature Communications, 2024)
Like-named read-outs stand apart in the source and are kept apart here.

Target: LC3B (Homo sapiens, UniProt Q9GZQ8)
Conditions: for CSP: LC3B:TH152 1:2

`CCCCCCC(Sc1nc(Cl)cc(Nc2nc(-c3ccc(C(=O)O)cc3)cs2)n1)C(=O)O` (stereo not shown) [compound 21] showed a CSP induced (G85 HN resonance, molar ratio TH152:LC3B 0.125) of 0.02291, a CSP induced (G85 HN resonance, molar ratio TH152:LC3B 0.25) of 0.03839 and a CSP induced (G85 HN resonance, molar ratio TH152:LC3B 0.5) of 0.1193. For the same molecule, the CSP induced (G85 HN resonance, molar ratio TH152:LC3B 1) was 0.155, the CSP induced (G85 HN resonance, molar ratio TH152:LC3B 2) was 0.2522 and the CSP induced (G85 HN resonance, molar ratio TH152:LC3B 4) was 0.2665. The CSP induced (K51 HN resonance, molar ratio TH152:LC3B 0.125) was 0.02268, the CSP induced (K51 HN resonance, molar ratio TH152:LC3B 0.25) was 0.07734 and the CSP induced (K51 HN resonance, molar ratio TH152:LC3B 0.5) was 0.1341. It also gave a CSP induced (K51 HN resonance, molar ratio TH152:LC3B 1) of 0.2088, a CSP induced (K51 HN resonance, molar ratio TH152:LC3B 2) of 0.2565 and a CSP induced (K51 HN resonance, molar ratio TH152:LC3B 4) of 0.2885. It also gave a CSP (LC3B residue A75) of 0.013 ppm, a CSP (LC3B residue A78) of 0.040 ppm and a CSP (LC3B residue A114) of 0.035 ppm. It also gave a CSP (LC3B residue D19) of 0.028 ppm, a CSP (LC3B residue D48) of 0.348 ppm and a CSP (LC3B residue D56) of 0.088 ppm. The CSP (LC3B residue D104) was 0.039 ppm, the CSP (LC3B residue D106) was 0.043 ppm and the CSP (LC3B residue E14) was 0.013 ppm. For the same molecule, the CSP (LC3B residue E18) was 0.013 ppm, the CSP (LC3B residue E25) was 0.075 ppm and the CSP (LC3B residue E36) was 0.143 ppm. For the same molecule, the CSP (LC3B residue E41) was 0.015 ppm, the CSP (LC3B residue E62) was 0.105 ppm and the CSP (LC3B residue E97) was 0.079 ppm. The CSP (LC3B residue E100) was 0.117 ppm, the CSP (LC3B residue E102) was 0.024 ppm and the CSP (LC3B residue E105) was 0.037 ppm. It also gave a CSP (LC3B residue E117) of 0.088 ppm, a CSP (LC3B residue F07) of 0.134 ppm and a CSP (LC3B residue F13) of 0.017 ppm. It also gave a CSP (LC3B residue F52) of 0.303 ppm, a CSP (LC3B residue F108) of 0.042 ppm and a CSP (LC3B residue F119) of 0.051 ppm. For the same molecule, the CSP (LC3B residue G40, estimated) was 0.060 ppm, the CSP (LC3B residue G107) was 0.021 ppm and the CSP (LC3B residue H27) was 0.041 ppm. The CSP (LC3B residue H57) was 0.104 ppm, the CSP (LC3B residue I23) was 0.063 ppm and the CSP (LC3B residue I31) was 0.112 ppm. For the same molecule, the CSP (LC3B residue I34) was 0.268 ppm, the CSP (LC3B residue I35) was 0.113 ppm and the CSP (LC3B residue I64) was 0.179 ppm. It also gave a CSP (LC3B residue I66) of 0.103 ppm, a CSP (LC3B residue I67) of 0.053 ppm and a CSP (LC3B residue K08) of 0.049 ppm. The CSP (LC3B residue K30) was 0.042 ppm, the CSP (LC3B residue K39) was 0.108 ppm and the CSP (LC3B residue K42) was 0.061 ppm. For the same molecule, the CSP (LC3B residue K49) was 0.162 ppm, the CSP (LC3B residue K51) was 0.313 ppm and the CSP (LC3B residue K65) was 0.162 ppm. The CSP (LC3B residue K103) was 0.084 ppm, the CSP (LC3B residue L22) was 0.077 ppm and the CSP (LC3B residue L44) was 0.080 ppm. It also gave a CSP (LC3B residue L47) of 0.391 ppm, a CSP (LC3B residue L53) of 0.260 ppm and a CSP (LC3B residue L63) of 0.163 ppm. For the same molecule, the CSP (LC3B residue L71) was 0.095 ppm, the CSP (LC3B residue L73) was 0.103 ppm and the CSP (LC3B residue L109) was 0.035 ppm. For the same molecule, the CSP (LC3B residue M01, estimated) was 0.020 ppm, the CSP (LC3B residue M60) was 0.042 ppm and the CSP (LC3B residue M111) was 0.134 ppm. It also gave a CSP (LC3B residue N59) of 0.559 ppm, a CSP (LC3B residue N74) of 0.039 ppm and a CSP (LC3B residue N76) of 0.012 ppm. For the same molecule, the CSP (LC3B residue P02, estimated) was 0.020 ppm, the CSP (LC3B residue P28, estimated) was 0.020 ppm and the CSP (LC3B residue P32, estimated) was 0.150 ppm. The CSP (LC3B residue P45, estimated) was 0.170 ppm, the CSP (LC3B residue P55, estimated) was 0.150 ppm and the CSP (LC3B residue Q09) was 0.00263 ppm. The CSP (LC3B residue Q15) was 0.016 ppm, the CSP (LC3B residue Q26) was 0.095 ppm and the CSP (LC3B residue Q43) was 0.037 ppm. The CSP (LC3B residue Q72) was 0.019 ppm, the CSP (LC3B residue Q77) was 0.045 ppm and the CSP (LC3B residue Q116) was 0.027 ppm. For the same molecule, the CSP (LC3B residue R10) was 0.025 ppm, the CSP (LC3B residue R11) was 0.027 ppm and the CSP (LC3B residue R16) was 0.021 ppm. For the same molecule, the CSP (LC3B residue R21) was 0.028 ppm, the CSP (LC3B residue R24) was 0.060 ppm and the CSP (LC3B residue R37) was 0.107 ppm. It also gave a CSP (LC3B residue R68) of 0.281 ppm, a CSP (LC3B residue R69) of 0.147 ppm and a CSP (LC3B residue R70) of 0.122 ppm. It also gave a CSP (LC3B residue S03, estimated) of 0.020 ppm, a CSP (LC3B residue S61) of 0.163 ppm and a CSP (LC3B residue S96) of 0.238 ppm. For the same molecule, the CSP (LC3B residue S101) was 0.072 ppm, the CSP (LC3B residue S115) was 0.019 ppm and the CSP (LC3B residue T06) was 0.020 ppm. The CSP (LC3B residue T12) was 0.021 ppm, the CSP (LC3B residue T29) was 0.015 ppm and the CSP (LC3B residue T50) was 0.299 ppm. The CSP (LC3B residue T118) was 0.045 ppm, the CSP (LC3B residue V17) was 0.022 ppm and the CSP (LC3B residue V20) was 0.018 ppm. It also gave a CSP (LC3B residue V33) of 0.194 ppm, a CSP (LC3B residue V46) of 0.270 ppm and a CSP (LC3B residue V54) of 0.190 ppm. It also gave a CSP (LC3B residue V58) of 0.313 ppm, a CSP (LC3B residue V98) of 0.081 ppm and a CSP (LC3B residue V112) of 0.337 ppm. For the same molecule, the CSP (LC3B residue Y38) was 0.061 ppm, the CSP (LC3B residue Y99) was 0.068 ppm and the CSP (LC3B residue Y110) was 0.103 ppm. It also gave a CSP (LC3B residue Y113) of 0.148 ppm, a CSP induced (M111 HN resonance, molar ratio TH152:LC3B 0.125) of 0.01154 and a CSP induced (M111 HN resonance, molar ratio TH152:LC3B 0.25) of 0.02288. For the same molecule, the CSP induced (M111 HN resonance, molar ratio TH152:LC3B 0.5) was 0.0422, the CSP induced (M111 HN resonance, molar ratio TH152:LC3B 1) was 0.08206 and the CSP induced (M111 HN resonance, molar ratio TH152:LC3B 2) was 0.1192. For the same molecule, the CSP induced (M111 HN resonance, molar ratio TH152:LC3B 4) was 0.1287, the CSP induced (S90 HN resonance, molar ratio TH152:LC3B 0.125) was 0.02291 and the CSP induced (S90 HN resonance, molar ratio TH152:LC3B 0.25) was 0.03839. The CSP induced (S90 HN resonance, molar ratio TH152:LC3B 0.5) was 0.1193, the CSP induced (S90 HN resonance, molar ratio TH152:LC3B 1) was 0.155 and the CSP induced (S90 HN resonance, molar ratio TH152:LC3B 2) was 0.2522. For the same molecule, the CSP induced (S90 HN resonance, molar ratio TH152:LC3B 4) was 0.2665, the CSP induced (V33 HN resonance, molar ratio TH152:LC3B 0.125) was 0.02123 and the CSP induced (V33 HN resonance, molar ratio TH152:LC3B 0.25) was 0.03832. It also gave a CSP induced (V33 HN resonance, molar ratio TH152:LC3B 0.5) of 0.08102, a CSP induced (V33 HN resonance, molar ratio TH152:LC3B 1) of 0.1239 and a CSP induced (V33 HN resonance, molar ratio TH152:LC3B 2) of 0.1753. The CSP induced (V33 HN resonance, molar ratio TH152:LC3B 4) was 0.2006.
